Measured values reported in ChEMBL document CHEMBL3621155, “The status of the lysophosphatidic acid receptor type 1 (LPA1R)” (Medchemcomm, 2015).
Each block holds one molecule with its values, some of them ahead of it.

Legend:
[1] = target: T1, Lysophosphatidic acid receptor 3 (Homo sapiens, UniProt Q9UBY5); test: Agonist activity at human LPA3 receptor transfected in HEK293T cells after 30 mins by GTP[gamma-35S] binding assay; type: cell-based, HEK-293T
T1 sequence (Q9UBY5 whole entry): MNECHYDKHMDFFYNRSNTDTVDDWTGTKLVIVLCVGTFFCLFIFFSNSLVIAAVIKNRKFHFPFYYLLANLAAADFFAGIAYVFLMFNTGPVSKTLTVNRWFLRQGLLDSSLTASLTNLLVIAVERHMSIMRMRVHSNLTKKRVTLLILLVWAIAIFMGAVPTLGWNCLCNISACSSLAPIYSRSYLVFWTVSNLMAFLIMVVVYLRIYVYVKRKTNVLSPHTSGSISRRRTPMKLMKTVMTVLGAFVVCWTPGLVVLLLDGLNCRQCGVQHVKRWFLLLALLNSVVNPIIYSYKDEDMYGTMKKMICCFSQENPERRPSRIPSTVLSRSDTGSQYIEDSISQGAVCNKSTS

[2] = target: T2, Lysophosphatidic acid receptor 2 (Homo sapiens, UniProt Q9HBW0); test: Antagonist activity at human LPA2 receptor expressed in rat B103 cells assessed as inhibition of LPA-induced calcium mobilization preincubated for 30 mins followed by LPA induction by FLIPR Calcium 4 dye-based fluorometric analysis; type: functional, cell-based
[3] = target: T3, Lysophosphatidic acid receptor 1 (Homo sapiens, UniProt Q92633); test: Antagonist activity at human LPA1 receptor expressed in CHO cells assessed as inhibition of LPA-induced calcium mobilization preincubated for 30 mins followed by LPA induction by FLIPR Calcium 4 dye-based fluorometric analysis; type: functional, cell-based
[4] = target: Lysophosphatidic acid receptor 5 (Homo sapiens, UniProt Q9H1C0); test: Antagonist activity at human LPA5 receptor expressed in rat B103 cells assessed as inhibition of LPA-induced calcium mobilization preincubated for 30 mins followed by LPA induction by FLIPR Calcium 4 dye-based fluorometric analysis; type: functional, cell-based
[5] = target: T1, Lysophosphatidic acid receptor 3; test: Antagonist activity at human LPA3 receptor expressed in CHO cells assessed as inhibition of LPA-induced calcium mobilization preincubated for 30 mins followed by LPA induction by FLIPR Calcium 4 dye-based fluorometric analysis; type: functional, cell-based
[6] = target: T4, Lysophosphatidic acid receptor 4 (Homo sapiens, UniProt Q99677); test: Antagonist activity at human LPA4 receptor expressed in rat B103 cells assessed as inhibition of LPA-induced calcium mobilization preincubated for 30 mins followed by LPA induction by FLIPR Calcium 4 dye-based fluorometric analysis; type: functional, cell-based
[7] = target: Lysophosphatidic acid receptor 1 (Mus musculus, UniProt P61793); test: Antagonist activity at mouse LPA1 receptor transfected in HEK293T cells; type: cell-based, HEK-293T
[8] = target: T1, Lysophosphatidic acid receptor 3; test: Antagonist activity at human LPA3 receptor transfected in HEK293T cells; type: cell-based, HEK-293T
[9] = target: T3, Lysophosphatidic acid receptor 1; test: Agonist activity at human LPA1 receptor transfected in HEK293T cells after 30 mins by GTP[gamma-35S] binding assay; type: cell-based, HEK-293T
[10] = target: T2, Lysophosphatidic acid receptor 2; test: Agonist activity at human LPA2 receptor transfected in HEK293T cells after 30 mins by GTP[gamma-35S] binding assay; type: cell-based, HEK-293T
[11] = target: T1, Lysophosphatidic acid receptor 3; test: Agonist activity at human LPA3 receptor transfected in RH7777 cells assessed as mobilization of Ca2+ by fluorometric analysis; type: functional, cell-based
[12] = target: T3, Lysophosphatidic acid receptor 1; test: Agonist activity at human LPA1 receptor transfected in RH7777 cells assessed as mobilization of Ca2+ by fluorometric analysis; type: functional, cell-based
[13] = target: T4, Lysophosphatidic acid receptor 4; test: Antagonist activity at human LPA4 receptor expressed in CHO cells assessed as inhibition of LPA-induced calcium mobilization by Fura-2 AM probe-based fluorometric analysis; type: functional, cell-based
[14] = target: T1, Lysophosphatidic acid receptor 3; test: Antagonist activity at human LPA3 receptor expressed in RH7777 cells assessed as inhibition of LPA-induced calcium mobilization by Fura-2 AM probe-based fluorometric analysis; type: functional, cell-based
[15] = target: T3, Lysophosphatidic acid receptor 1; test: Antagonist activity at human LPA1 receptor expressed in RH7777 cells assessed as inhibition of LPA-induced calcium mobilization by Fura-2 AM probe-based fluorometric analysis; type: functional, cell-based
[16] = target: T2, Lysophosphatidic acid receptor 2; test: Antagonist activity at human LPA2 receptor expressed in RH7777 cells assessed as inhibition of LPA-induced calcium mobilization by Fura-2 AM probe-based fluorometric analysis; type: functional, cell-based
[17] = target: T2, Lysophosphatidic acid receptor 2; test: Antagonist activity at human LPA2 receptor expressed in CHO cells assessed as inhibition of LPA-induced calcium mobilization preincubated for 30 mins followed by LPA induction by FLIPR Calcium 4 dye-based fluorometric analysis; type: functional, cell-based
[18] = target: T3, Lysophosphatidic acid receptor 1; test: Antagonist activity at human LPA1 receptor expressed in CHO cells assessed as inhibition of LPA-induced calcium mobilization preincubated with protein followed by LPA induction measured for 2 mins by Fluo-4 dye-based FLIPR assay; type: functional, cell-based
[19] = target: Lysophosphatidic acid receptor 1/lysophosphatidic acid receptor 3 (Rattus norvegicus, UniProt Q8K5E0+P61794); test: Antagonist activity at LPA1/LPA3 receptor (unknown origin); type: protein assay, Homo sapiens
[20] = Displacement of [32P]diazirine-LPA from LPA receptor in mouse N1E-115 cells preincubated for 1 hr in dark followed by UV irradiation for 5 mins by scintillation counting analysis; type: cell-based

T3 sequence (Q92633 whole entry): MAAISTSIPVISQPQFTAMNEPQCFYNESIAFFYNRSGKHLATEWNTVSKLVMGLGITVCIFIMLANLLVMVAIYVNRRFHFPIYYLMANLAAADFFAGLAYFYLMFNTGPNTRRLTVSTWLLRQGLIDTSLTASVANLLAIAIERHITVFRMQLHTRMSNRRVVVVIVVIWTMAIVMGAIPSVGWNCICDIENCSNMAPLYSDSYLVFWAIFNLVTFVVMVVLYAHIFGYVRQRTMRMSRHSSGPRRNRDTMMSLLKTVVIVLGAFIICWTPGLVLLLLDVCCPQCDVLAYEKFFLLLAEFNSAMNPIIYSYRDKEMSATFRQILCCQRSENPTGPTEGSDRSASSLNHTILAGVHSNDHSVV
T2 sequence (Q9HBW0 whole entry): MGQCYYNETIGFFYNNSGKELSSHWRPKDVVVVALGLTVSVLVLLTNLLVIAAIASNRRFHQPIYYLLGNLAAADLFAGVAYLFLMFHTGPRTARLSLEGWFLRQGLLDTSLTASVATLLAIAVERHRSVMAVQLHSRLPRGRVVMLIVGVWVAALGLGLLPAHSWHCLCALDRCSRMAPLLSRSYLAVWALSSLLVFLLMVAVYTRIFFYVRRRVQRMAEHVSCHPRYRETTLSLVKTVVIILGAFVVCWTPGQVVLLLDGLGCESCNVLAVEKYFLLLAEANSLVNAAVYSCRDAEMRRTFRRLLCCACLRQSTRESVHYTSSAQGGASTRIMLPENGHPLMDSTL
T4 sequence (Q99677 whole entry): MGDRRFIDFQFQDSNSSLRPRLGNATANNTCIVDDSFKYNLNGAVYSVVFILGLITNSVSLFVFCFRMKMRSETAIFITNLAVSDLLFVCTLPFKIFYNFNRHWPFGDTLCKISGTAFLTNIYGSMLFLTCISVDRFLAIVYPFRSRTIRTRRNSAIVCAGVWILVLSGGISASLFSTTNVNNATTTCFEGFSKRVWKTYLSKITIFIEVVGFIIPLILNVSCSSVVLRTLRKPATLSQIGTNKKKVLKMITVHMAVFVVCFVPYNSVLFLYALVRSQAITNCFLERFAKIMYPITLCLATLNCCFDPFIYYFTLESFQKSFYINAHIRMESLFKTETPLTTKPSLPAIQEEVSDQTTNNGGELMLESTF
Chain of Lysophosphatidic acid receptor 1 (Mus musculus, UniProt P61793) (P61793 whole entry): as the sequence (Q92633 whole entry) above, with I4A, I8S, P22Q, H40Y, I61V, E193D, N194H, I269V, S331N, T335N counted along it
Chain of Lysophosphatidic acid receptor 5 (Q9H1C0 whole entry): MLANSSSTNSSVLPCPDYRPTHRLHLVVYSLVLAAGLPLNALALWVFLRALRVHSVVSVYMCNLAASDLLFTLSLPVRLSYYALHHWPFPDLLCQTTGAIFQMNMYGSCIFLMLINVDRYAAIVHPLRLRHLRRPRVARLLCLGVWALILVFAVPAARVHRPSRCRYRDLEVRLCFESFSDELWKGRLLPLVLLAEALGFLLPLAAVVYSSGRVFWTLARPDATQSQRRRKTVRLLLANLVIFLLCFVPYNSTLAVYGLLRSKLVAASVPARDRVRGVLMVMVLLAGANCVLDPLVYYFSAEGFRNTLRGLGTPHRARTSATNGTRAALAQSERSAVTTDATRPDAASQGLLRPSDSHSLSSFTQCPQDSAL

SMILES: CCCCCCCC/C=C\CCCCCCCC(=O)OC[C@@H](COP(O)(O)=S)OC
EC50 [1]: 0.276 µM

SMILES: Cc1noc(-c2ccc(-c3ccc(CC(=O)O)cc3)cc2)c1NC(=O)O[C@H](C)c1ccccc1
IC50 [2]: > 8 µM
IC50 [3]: 0.025 µM
IC50 [4]: > 8 µM
IC50 [5]: > 8 µM
IC50 [6]: > 8 µM

SMILES: CCCCCCCC/C=C\CCCCCCCC(=O)NCCOP(O)(O)=S
EC50 [9]: 0.04 µM
EC50 [10]: 0.108 µM

SMILES: CCCCCCCC/C=C\CCCCCCCC(=O)NCCSP(=O)(O)O
EC50 [9]: 0.318 µM

SMILES: CCCCCCCC/C=C\CCCCCCCCOC[C@H](COP(O)(O)=S)OC
EC50 [11]: 0.062 µM
EC50 [12]: 0.79 µM

SMILES: CCCCCCCC/C=C\CCCCCCCCOC[C@@H](COP(O)(O)=S)OC
EC50 [11]: 0.08 µM
EC50 [12]: 0.571 µM

Now from value to molecule:

IC50 [7]: 5.21 µM
IC50 [8]: 6.45 µM
SMILES: CCCCCCCC/C=C\CCCCCCCC(=O)N[C@H](COP(=O)(O)O)Cc1ccc(OCc2ccccc2)cc1

IC50 [13]: 0.266 µM
IC50 [14]: 1.16 µM
IC50 [15]: 1.5 µM
IC50 [16]: 1.42 µM
SMILES: CCCCCC/C=C\CCCCCCCC(=O)OC[C@@H](O)CC(Br)P(=O)(O)O (some centres not stated)

IC50 [17]: 1.7 µM
IC50 [3]: 0.017 µM
IC50 [5]: 1.6 µM
SMILES: Cc1noc(-c2ccc(-c3ccc(CC(=O)O)cc3)cc2)c1NC(=O)O[C@H](C)c1ccccc1Cl

IC50 [3]: < 0.05 µM
IC50 [5]: > 0.5 µM
SMILES: Cc1nsc(-c2ccc(-c3ccc(CC(=O)O)cc3)cc2)c1NC(=O)O[C@H](C)c1ccccc1Cl

IC50 [18]: 0.0066 µM
SMILES: COc1ccc([C@@H](O)C(=O)N(CCCc2ccccc2)Cc2nc(C(=O)NS(C)(=O)=O)c(C)s2)c(F)c1

IC50 [19]: < 0.1 µM
SMILES: COc1ccc(C(=O)NC2(C(=O)O)Cc3ccccc3C2)cc1OCCc1cccc(C)c1 [FIPAXALPARANT]

IC50 [20]: 0.01 µM
SMILES: CCCCCCCC/C=C\CCCCCCCC(=O)OC[C@@H](O)COP(=O)(O)O [LYSOPHOSPHATIDIC ACID]
